Measured values taken from paper PMC7867265, “Phosphofructokinases A and B from Mycobacterium tuberculosis Display Different Catalytic Properties and Allosteric Regulation” (International Journal of Molecular Sciences, 2021).

Columns and labels:
Pfk A [1] = target: T1, Pfk A (Mycobacterium tuberculosis, UniProt P9WID7)
T1 construct: gene pfkA

Pfk A [2] = target: T1, Pfk A; remark: listed apart in the source
Pfk A [3] = target: T1, Pfk A; remark: listed apart in the source
Pfk B = target: T2, Pfk B (Mycobacterium tuberculosis, UniProt P9WID3)
T2 construct: gene pfkB

Pfk A [4] = target: T1, Pfk A; remark: listed apart in the source

T1 sequence (P9WID7 whole entry): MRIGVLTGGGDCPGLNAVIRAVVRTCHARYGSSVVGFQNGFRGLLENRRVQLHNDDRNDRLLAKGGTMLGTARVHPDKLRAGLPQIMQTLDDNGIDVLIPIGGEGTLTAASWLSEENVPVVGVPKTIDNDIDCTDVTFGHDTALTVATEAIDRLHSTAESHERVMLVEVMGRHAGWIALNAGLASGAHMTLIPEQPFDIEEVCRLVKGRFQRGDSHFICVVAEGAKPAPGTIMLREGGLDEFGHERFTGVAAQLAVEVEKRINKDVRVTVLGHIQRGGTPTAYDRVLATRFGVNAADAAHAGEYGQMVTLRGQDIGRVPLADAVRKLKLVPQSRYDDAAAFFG
T2 sequence (P9WID3 whole entry): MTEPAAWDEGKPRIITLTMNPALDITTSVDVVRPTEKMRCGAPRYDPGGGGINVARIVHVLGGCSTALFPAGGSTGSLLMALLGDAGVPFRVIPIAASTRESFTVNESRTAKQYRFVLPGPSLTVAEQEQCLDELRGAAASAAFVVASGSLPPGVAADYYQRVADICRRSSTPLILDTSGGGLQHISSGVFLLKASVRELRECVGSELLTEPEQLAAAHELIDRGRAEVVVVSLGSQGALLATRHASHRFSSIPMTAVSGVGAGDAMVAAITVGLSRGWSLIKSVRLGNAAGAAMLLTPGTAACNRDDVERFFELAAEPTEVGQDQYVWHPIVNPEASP

SMILES: O=C(O)CC(O)(CC(=O)O)C(=O)O [citrate]
- inhibition, coupled assay I (Pfk A [1]): Citrate also inhibited Pfk A, however, in millimolar concentrations

SMILES: Nc1nc2c(ncn2[C@@H]2O[C@H](COP(=O)(O)OP(=O)(O)O)[C@@H](O)[C@H]2O)c(=O)[nH]1 [GDP]
- inhibition, coupled assay I (Pfk A [1]): Pfk A was found to be efficiently inhibited also by GDP within the millimolar concentration range

SMILES: Nc1ncnc2c1ncn2[C@@H]1O[C@H](COP(=O)(O)OP(=O)(O)OP(=O)(O)O)[C@@H](O)[C@H]1O [ATP]
- K1/2 (Km) (Pfk A [2]): 1.5 ± 0.3 mM

SMILES: O=P(O)(O)OC[C@H]1OC(O)(CO)[C@@H](O)[C@@H]1O (some centres unmarked) [F6P]
- K1/2 (Km) (Pfk A [2]): 13.2 ± 2.0 mM

SMILES: O=P(O)(O)OC[C@H]1OC(O)(COP(=O)(O)O)[C@@H](O)[C@@H]1O (some centres unmarked) [F16bP]
- feedback inhibition, modified coupled assay II (Pfk A [3]): Pfk A was efficiently inhibited by F16bP within the low micromolar concentration range

SMILES: C=C(OP(=O)(O)O)C(=O)O [PEP]
- inhibition, coupled assay I (Pfk A [1]): efficient Pfk A inhibition can be achieved by a low micromolar concentration of this metabolite

SMILES: O=P(O)(O)OC[C@H]1O[C@@](CO)(OP(=O)(O)O)[C@@H](O)[C@@H]1O [F26bP]
- % activation at 100 μM (Pfk B): 20%
- % activation at 100 μM (Pfk A [4]): 10%
